Results taken from patent US12662479B2 (Foghorn Therapeutics Inc., priority 2020, dated 2026).

Tests used:
[1] = target: T1, HiBit-BRM fusion protein (Homo sapiens, UniProt P51531); test: HiBiT-BRM cell-based degradation assay (Nano-Glo HiBiT Lytic Detection, 24 h); conditions: HeLa cells expressing HiBiT-BRM; for DC50: read-out: BRM HiBit Degradation IC50; for BRM HiBit Degradation Maximum measured: top dose 30 μM
T1 construct: expressed in transfected cells
Outline: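 HeLa cells stably expressing HiBiT-BRM were treated for 24 h with compounds (10-point 3-fold dilutions, 30 μM final top dose, in duplicate). HiBiT was detected by lytic LgBiT complementation luminescence. % degradation was normalized to DMSO (high control) and 2 μM of a reference BRM/BRG1 degrader (low control).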

[2] = target: T2, HiBit-BRG1 fusion protein (Homo sapiens, UniProt P51532); test: HiBiT-BRG1 cell-based degradation assay (Nano-Glo HiBiT Lytic Detection, 24 h); conditions: HeLa cells expressing HiBit-BRG1 and LgBit; for DC50: read-out: BRG1 HiBit Degradation IC50; for Dmax: HeLa, top dose 30 μM, read-out: BRG1 HiBit Degradation Maximum measured
T2 construct: expressed in transfected cells
Outline: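 Stable HeLa line expressing HiBiT-BRG1 and LgBiT, seeded at 5000 cells/well; luminescence read after lytic Nano-Glo HiBiT reagent and 10 min shaking at RT. % degradation normalised between DMSO (high control) and 2 μM reference BRM/BRG1 degrader (low control).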

T2 sequence (P51532 whole entry, the tested form may be a part): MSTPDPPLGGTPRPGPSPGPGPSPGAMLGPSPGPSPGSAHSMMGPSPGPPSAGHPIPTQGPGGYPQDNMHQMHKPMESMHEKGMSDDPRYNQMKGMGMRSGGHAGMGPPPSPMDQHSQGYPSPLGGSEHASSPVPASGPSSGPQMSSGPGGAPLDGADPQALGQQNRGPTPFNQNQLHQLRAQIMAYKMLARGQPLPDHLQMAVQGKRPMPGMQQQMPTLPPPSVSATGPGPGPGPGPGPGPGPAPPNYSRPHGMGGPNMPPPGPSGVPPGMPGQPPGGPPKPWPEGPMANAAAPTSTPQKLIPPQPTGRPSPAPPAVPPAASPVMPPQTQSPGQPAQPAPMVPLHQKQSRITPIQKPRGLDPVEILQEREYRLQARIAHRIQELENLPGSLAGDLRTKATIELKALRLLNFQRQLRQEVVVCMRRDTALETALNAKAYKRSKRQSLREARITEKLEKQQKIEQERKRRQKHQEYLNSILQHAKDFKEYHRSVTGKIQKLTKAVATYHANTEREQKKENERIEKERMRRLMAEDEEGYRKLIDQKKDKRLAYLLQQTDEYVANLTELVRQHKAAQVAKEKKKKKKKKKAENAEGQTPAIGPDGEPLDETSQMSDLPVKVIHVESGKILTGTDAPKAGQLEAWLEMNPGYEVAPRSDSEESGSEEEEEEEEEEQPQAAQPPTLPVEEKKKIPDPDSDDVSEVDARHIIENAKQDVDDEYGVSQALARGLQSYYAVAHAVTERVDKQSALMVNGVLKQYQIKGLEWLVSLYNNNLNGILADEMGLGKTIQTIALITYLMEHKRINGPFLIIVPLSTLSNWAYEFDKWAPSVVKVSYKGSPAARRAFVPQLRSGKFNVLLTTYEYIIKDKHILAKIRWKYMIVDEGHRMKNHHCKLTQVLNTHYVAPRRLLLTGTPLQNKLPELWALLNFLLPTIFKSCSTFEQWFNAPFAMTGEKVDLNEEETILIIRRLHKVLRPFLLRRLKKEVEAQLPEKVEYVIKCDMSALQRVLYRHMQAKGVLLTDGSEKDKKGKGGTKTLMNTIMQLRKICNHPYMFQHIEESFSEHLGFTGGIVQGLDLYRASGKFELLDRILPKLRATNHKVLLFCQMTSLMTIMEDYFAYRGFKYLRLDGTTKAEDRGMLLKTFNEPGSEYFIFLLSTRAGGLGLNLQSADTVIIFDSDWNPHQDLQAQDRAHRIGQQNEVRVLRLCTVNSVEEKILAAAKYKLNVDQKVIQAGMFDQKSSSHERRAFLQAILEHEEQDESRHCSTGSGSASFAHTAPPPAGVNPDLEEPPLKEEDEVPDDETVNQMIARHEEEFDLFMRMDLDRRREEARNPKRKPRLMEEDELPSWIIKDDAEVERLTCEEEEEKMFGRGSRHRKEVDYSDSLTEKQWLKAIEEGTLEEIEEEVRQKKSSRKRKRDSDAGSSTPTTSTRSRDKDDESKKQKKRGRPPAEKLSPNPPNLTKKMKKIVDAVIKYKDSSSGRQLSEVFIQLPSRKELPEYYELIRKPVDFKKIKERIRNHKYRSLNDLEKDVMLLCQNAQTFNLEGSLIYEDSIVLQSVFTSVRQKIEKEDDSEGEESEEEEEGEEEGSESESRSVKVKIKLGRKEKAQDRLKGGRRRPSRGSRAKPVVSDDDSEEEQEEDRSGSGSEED
T1 sequence (P51531 whole entry, the tested form may be a part): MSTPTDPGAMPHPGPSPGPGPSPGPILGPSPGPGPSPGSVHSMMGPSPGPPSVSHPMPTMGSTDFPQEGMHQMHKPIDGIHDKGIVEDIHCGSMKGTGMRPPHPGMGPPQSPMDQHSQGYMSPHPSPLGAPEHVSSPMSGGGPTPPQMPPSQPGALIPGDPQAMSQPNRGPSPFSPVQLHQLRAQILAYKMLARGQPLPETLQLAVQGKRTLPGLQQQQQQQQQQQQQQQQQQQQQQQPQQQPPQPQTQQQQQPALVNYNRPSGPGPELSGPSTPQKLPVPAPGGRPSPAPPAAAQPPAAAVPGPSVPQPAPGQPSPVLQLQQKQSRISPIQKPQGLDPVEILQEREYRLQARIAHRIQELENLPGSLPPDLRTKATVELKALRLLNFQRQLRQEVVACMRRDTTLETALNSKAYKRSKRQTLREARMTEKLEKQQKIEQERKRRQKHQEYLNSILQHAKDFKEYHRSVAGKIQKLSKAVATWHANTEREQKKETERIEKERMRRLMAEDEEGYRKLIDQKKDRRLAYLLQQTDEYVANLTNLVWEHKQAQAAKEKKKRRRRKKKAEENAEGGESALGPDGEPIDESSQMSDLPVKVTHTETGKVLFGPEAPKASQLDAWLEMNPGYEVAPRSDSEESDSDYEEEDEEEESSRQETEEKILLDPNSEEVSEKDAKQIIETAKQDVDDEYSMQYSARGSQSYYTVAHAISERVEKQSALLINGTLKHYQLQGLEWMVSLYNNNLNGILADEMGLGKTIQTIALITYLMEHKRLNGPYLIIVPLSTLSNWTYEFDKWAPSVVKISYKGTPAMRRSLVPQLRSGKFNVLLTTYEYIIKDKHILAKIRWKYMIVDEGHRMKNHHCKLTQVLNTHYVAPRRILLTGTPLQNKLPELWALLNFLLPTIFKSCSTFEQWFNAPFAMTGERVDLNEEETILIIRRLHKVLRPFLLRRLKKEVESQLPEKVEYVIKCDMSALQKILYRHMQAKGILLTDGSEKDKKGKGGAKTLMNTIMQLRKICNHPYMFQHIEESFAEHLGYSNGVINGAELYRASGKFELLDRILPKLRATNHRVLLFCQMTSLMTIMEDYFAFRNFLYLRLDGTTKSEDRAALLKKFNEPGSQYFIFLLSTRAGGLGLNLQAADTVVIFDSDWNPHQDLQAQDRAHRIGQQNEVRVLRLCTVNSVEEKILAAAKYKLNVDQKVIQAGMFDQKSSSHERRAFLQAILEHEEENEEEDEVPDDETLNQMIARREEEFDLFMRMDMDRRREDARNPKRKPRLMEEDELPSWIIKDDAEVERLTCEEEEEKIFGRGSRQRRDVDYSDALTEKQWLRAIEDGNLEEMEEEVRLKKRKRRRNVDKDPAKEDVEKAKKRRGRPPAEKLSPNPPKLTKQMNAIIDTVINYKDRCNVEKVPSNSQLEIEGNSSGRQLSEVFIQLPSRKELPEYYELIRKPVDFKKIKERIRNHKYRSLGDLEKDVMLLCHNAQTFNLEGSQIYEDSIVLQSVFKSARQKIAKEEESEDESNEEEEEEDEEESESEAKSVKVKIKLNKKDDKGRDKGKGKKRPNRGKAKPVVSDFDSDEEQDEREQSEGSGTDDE

## Cc1ncsc1-c1ccc(CNC(=O)[C@@H]2C[C@@H](O)CN2C(=O)[C@@H](NC(=O)CCCC(=O)NCc2cccc(-c3cccc(-c4csc(NC(=O)CNC(=O)c5ccn(S(C)(=O)=O)c5)n4)c3)c2)C(C)(C)C)cc1 [Compound 56, N′-[(1S)-1-[(2S,4R)-4-hydroxy-2-[[4-(4-methylthiazol-5-yl)phenyl]methylcarbamoyl]pyrrolidine-1-carbonyl]-2,2-dimethyl-propyl]-N-[[3-[3-[2-[[2-[(1-methylsulfonylpyrrole-3-carbonyl)amino]acetyl]amino]thiazol-4-yl]phenyl]phenyl]methyl]pentanediamide]
[1]
  DC50: > 10 µM
  BRM HiBit Degradation Maximum measured: C (‘C’ = Maximum degradation <50%)
[2]
  DC50: > 10 µM
  Dmax: < 50%

## CS(=O)(=O)n1ccc(C(=O)N[C@@H](CCCCNC(=O)C2CC2CNC(=O)COc2cccc3c2C(=O)N(C2CCC(=O)NC2=O)C3=O)C(=O)Nc2nc(-c3ccccc3)cs2)c1 (stereo partly drawn) [Compound 284, (2S)-6-([2-[(2-[[2-(2,6-dioxopiperidin-3-yl)-1,3-dioxoisoindol-4-yl]oxy]acetamido)methyl]cyclopropyl]formamido)-2-[(1-methanesulfonylpyrrol-3-yl)formamido]-N-(4-phenyl-1,3-thiazol-2-yl)hexanamide]
[1]
  DC50: > 10 µM
  BRM HiBit Degradation Maximum measured: C (‘C’ = Maximum degradation <50%)
[2]
  DC50: > 10 µM
  Dmax: < 50%

## Cc1ncsc1-c1ccc(CNC(=O)[C@@H]2C[C@@H](O)CN2C(=O)[C@@H](NC(=O)CCCCCNC(=O)c2ccc(COC[C@H](NC(=O)c3ccn(S(C)(=O)=O)c3)C(=O)Nc3nc(-c4ccccc4)cs3)cc2)C(C)(C)C)cc1 [Compound 232, (2S,4R)-4-hydroxy-1-[(2S)-2-[6-[(4-[[(2S)-2-[(1-methanesulfonylpyrrol-3-yl)formamido]-2-[(4-phenyl-1,3-thiazol-2-yl)carbamoyl]ethoxy]methyl]phenyl)formamido]hexanamido]-3,3-dimethylbutanoyl]-N-[[4-(4-methyl-1,3-thiazol-5-yl)phenyl]methyl]pyrrolidine-2-carboxamide]
[1]
  DC50: > 10 µM
  BRM HiBit Degradation Maximum measured: C (‘C’ = Maximum degradation <50%)
[2]
  DC50: > 10 µM
  Dmax: < 50%

## CS(=O)(=O)n1ccc(C(=O)N[C@@H](CCCCNC(=O)CCCCOc2cccc3c2C(=O)N(C2CCC(=O)NC2=O)C3=O)C(=O)Nc2nc(-c3ccccc3)cs2)c1 (stereo partly drawn) [Compound 295, (2S)-6-(5-[[2-(2,6-dioxopiperidin-3-yl)-1,3-dioxoisoindol-4-yl]oxy]pentanemido)-2-[(1-methanesulfonylpyrrol-3-yl)formamido]-N-(4-phenyl-1,3-thiazol-2-yl)hexanamide]
[1]
  DC50: > 10 µM
  BRM HiBit Degradation Maximum measured: C (‘C’ = Maximum degradation <50%)
[2]
  DC50: > 10 µM
  Dmax: < 50%

## CS(=O)(=O)n1ccc(C(=O)NCC(=O)Nc2nc(-c3cccc(-c4ccnc(N5CCN(C(=O)C6CC6CNC(=O)COc6ccc7c(c6)C(=O)N(C6CCC(=O)NC6=O)C7=O)CC5)c4)c3)cs2)c1 (centres unmarked) [Compound 39, N-[2-[[4-[3-[2-[4-[2-[[[2-[2-(2,6-dioxo-3-piperidyl)-1,3-dioxo-isoindolin-5-yl]oxyacetyl]amino]methyl]cyclopropanecarbonyl]piperazin-1-yl]-4-pyridyl]phenyl]thiazol-2-yl]amino]-2-oxo-ethyl]-1-methylsulfonyl-pyrrole-3-carboxamide]
[1]
  DC50: > 10 µM
  BRM HiBit Degradation Maximum measured: C (‘C’ = Maximum degradation <50%)
[2]
  DC50: > 10 µM
  Dmax: < 50%

## CS(=O)(=O)n1ccc(C(=O)N[C@@H](COCc2ccc(C(=O)NCCS(=O)(=O)CCNc3cccc4c3C(=O)N(C3CCC(=O)NC3=O)C4=O)cc2)C(=O)Nc2nc(-c3ccccc3)cs2)c1 (stereo partly drawn) [Compound 190, N-[2-(2-[[2-(2,6-dioxopiperidin-3-yl)-1,3-dioxoisoindol-4-yl]amino]ethanesulfonyl)ethyl]-4-[[(2S)-2-[(1-methanesulfonylpyrrol-3-yl)formamido]-2-[(4-phenyl-1,3-thiazol-2-yl)carbamoyl]ethoxy]methyl]benzamide]
[1]
  DC50: > 10 µM
  BRM HiBit Degradation Maximum measured: C (‘C’ = Maximum degradation <50%)
[2]
  DC50: > 10 µM
  Dmax: < 50%

## CS(=O)(=O)n1ccc(C(=O)N[C@@H](COCCCC(=O)NCCCCCCNc2ccc3c(c2)C(=O)N(C2CCC(=O)NC2=O)C3=O)C(=O)Nc2nc(-c3ccccc3)cs2)c1 (stereo partly drawn) [Compound 230, N-(6-[[2-(2,6-dioxopiperidin-3-yl)-1,3-dioxoisoindol-5-yl]amino]hexyl)-4-[(2S)-2-[(1-methanesulfonylpyrrol-3-yl)formamido]-2-[(4-phenyl-1,3-thiazol-2-yl)carbamoyl]ethoxy]butanamide]
[1]
  DC50: > 10 µM
  BRM HiBit Degradation Maximum measured: C (‘C’ = Maximum degradation <50%)
[2]
  DC50: > 10 µM
  Dmax: < 50%

## CS(=O)(=O)n1ccc(C(=O)N[C@@H](COCCCC(=O)NCCCCCNc2ccc3c(c2)C(=O)N(C2CCC(=O)NC2=O)C3=O)C(=O)Nc2nc(-c3ccccc3)cs2)c1 (stereo partly drawn) [Compound 187, N-(5-[[2-(2,6-dioxopiperidin-3-yl)-1,3-dioxoisoindol-5-yl]amino]pentyl)-4-[(2S)-2-[(1-methanesulfonylpyrrol-3-yl)formamido]-2-[(4-phenyl-1,3-thiazol-2-yl)carbamoyl]ethoxy]butanamide]
[1]
  DC50: > 10 µM
  BRM HiBit Degradation Maximum measured: C (‘C’ = Maximum degradation <50%)
[2]
  DC50: > 10 µM
  Dmax: < 50%

## Cc1ncsc1-c1ccc(CNC(=O)[C@@H]2C[C@@H](O)CN2C(=O)[C@@H](NC(=O)CCCCCCCCCCCCC(=O)NCc2ccc(COC[C@H](NC(=O)c3ccn(S(C)(=O)=O)c3)C(=O)Nc3nc(-c4ccccc4)cs3)cc2)C(C)(C)C)cc1 [Compound 211, N-[(2S)-1-[(2S,4R)-4-hydroxy-2-([[4-(4-methyl-1,3-thiazol-5-yl)phenyl]methyl]carbamoyl)pyrrolidin-1-yl]-3,3-dimethyl-1-oxobutan-2-yl]-N′-[(4-[[(2S)-2-[(1-methanesulfonylpyrrol-3-yl)formamido]-2-[(4-phenyl-1,3-thiazol-2-yl)carbamoyl]ethoxy]methyl]phenyl)methyl]tetradecanediamide]
[1]
  DC50: > 10 µM
  BRM HiBit Degradation Maximum measured: C (‘C’ = Maximum degradation <50%)
[2]
  DC50: > 10 µM
  Dmax: < 50%

## CS(=O)(=O)n1ccc(C(=O)N[C@@H](COCc2ccc(CNC(=O)CCOCCOCCNc3cccc4c3C(=O)N(C3CCC(=O)NC3=O)C4=O)cc2)C(=O)Nc2nc(-c3ccccc3)cs2)c1 (some centres unmarked) [Compound 181]
[1]
  DC50: 0.1 to 1 µM
  BRM HiBit Degradation Maximum measured: B (‘B’ = Maximum degradation ≥50% and ≤75%)
[2]
  DC50: 0.1 to 1 µM
  Dmax: 50 to 75%

## CC(C)(C(=O)NCCCCCCCCNC(=O)COc1cccc2c1C(=O)N(C1CCC(=O)NC1=O)C2=O)n1ccc(-c2cccc(-c3csc(NC(=O)CNC(=O)c4ccn(S(C)(=O)=O)c4)n3)c2)n1 (centres unmarked) [Compound 8, N-(2-((4-(3-(1-(1-((8-(2-((2-(2,6-dioxopiperidin-3-yl)-1,3-dioxoisoindolin-4-yl)oxy)acetamido)octyl)amino)-2-methyl-1-oxopropan-2-yl)-1H-pyrazol-3-yl)phenyl)thiazol-2-yl)amino)-2-oxoethyl)-1-(methylsulfonyl)-1H-pyrrole-3-carboxamide]
[1]
  DC50: 0.1 to 1 µM
  BRM HiBit Degradation Maximum measured: B (‘B’ = Maximum degradation ≥50% and ≤75%)
[2]
  DC50: 0.1 to 1 µM
  Dmax: 50 to 75%

## CS(=O)(=O)n1ccc(C(=O)N[C@@H](COCc2ccc(CNC(=O)CCCCCCOc3cccc4c3C(=O)N(C3CCC(=O)NC3=O)C4=O)cc2)C(=O)Nc2nc(-c3ccccc3)cs2)c1 (stereo partly drawn) [Compound 179, 7-[[2-(2,6-dioxopiperidin-3-yl)-1,3-dioxoisoindol-4-yl]oxy]-N-[(4-[[(2S)-2-[(1-methanesulfonylpyrrol-3-yl)formamido]-2-[(4-phenyl-1,3-thiazol-2-yl)carbamoyl]ethoxy]methyl]phenyl)methyl]heptanamide]
[1]
  DC50: > 10 µM
  BRM HiBit Degradation Maximum measured: C (‘C’ = Maximum degradation <50%)
[2]
  DC50: > 10 µM
  Dmax: < 50%

## CS(=O)(=O)n1ccc(C(=O)NCC(=O)Nc2nc(-c3cccc(-c4ccnc(N5CCN(C(=O)CCOCCOCCOc6ccc7c(c6)C(=O)N(C6CCC(=O)NC6=O)C7=O)CC5)c4)c3)cs2)c1 (centres unmarked) [Compound 73, N-[2-[[4-[3-[2-[4-[3-[2-[2-[2-(2,6-dioxo-3-piperidyl)-1,3-dioxo-isoindolin-5-yl]oxyethoxy]ethoxy]propanoyl]piperazin-1-yl]-4-pyridyl]phenyl]thiazol-2-yl]amino]-2-oxo-ethyl]-1-methylsulfonyl-pyrrole-3-carboxamide]
[1]
  DC50: 0.1 to 1 µM
  BRM HiBit Degradation Maximum measured: A (‘A’ = Maximum degradation >75%)
[2]
  DC50: 0.1 to 1 µM
  Dmax: > 75%

## Cc1ncsc1-c1ccc(CNC(=O)C2CC(O)CN2C(=O)C(NC(=O)CCCCCCCNC(=O)c2ccc(COCC(NC(=O)c3ccn(S(C)(=O)=O)c3)C(=O)Nc3nc(-c4ccccc4)cs3)cc2)C(C)(C)C)cc1 (centres unmarked) [Compound 174]
[1]
  DC50: 0.1 to 1 µM
  BRM HiBit Degradation Maximum measured: B (‘B’ = Maximum degradation ≥50% and ≤75%)
[2]
  DC50: 0.1 to 1 µM
  Dmax: 50 to 75%
